Read-outs that look alike come from different tables or passages of the source.
Assays:
[1] = test system: MOLT-4; test: CellTiterGlo viability assay, MOLT-4; type: cell-based; details: for IC50: read-out: IC50 MOLT-4
Experimental: (§1) In vitro viability assay were performed to assess the effects of compounds on cell viability in selected cell lines over ˜72 hrs using the CellTiterGlo (CTG, Promega-G7573) assay. The tests were performed in duplicates with treatment of compounds at 9 points, 3.16 folds titration in 96 well plates over ˜72 hrs. The compound starting concentrations were 198 μM. Cell viability assay using CellTiterGlo in 96-well plate were performed. Compound treatment 72 hrs, standard growth conditions, duplicates. Compounds were dissolved to 40 mM with thawed […]. Compounds were serially diluted at 3.16 fold in thawed DMSO, and warmed to 37° C. before being dissolved in media (2 μl+200 μl). After compounds were dissolved in media, media containing compounds were warmed to 37° C. in incubator and then compounds in media were added to cell plates (50 μl+50 μl) in duplicates. The compounds' final concentrations were from […] to 19.9 nM. All compound solubilities were checked and recorded again, then the plates were transferred to CO2 tissue culture incubator immediately and incubated for 3 days. DMSO final concentration is 0.5%.

[2] = test system: HEL92.1.7; test: CellTiterGlo viability assay, HEL92.1.7; type: cell-based; details: for IC50: read-out: IC50 HEL92.1.7
Method in brief: (§2)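 CTG luminescence read-out after ~72 h compound exposure; 9 pts, 3.16-fold dilution, top final 198 μM, bottom 19.9 nM; duplicates; 0.5% DMSO final; 37 °C CO2 incubator.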

[3] = test system: HT29; test: CellTiterGlo viability assay, HT29; type: cell-based; details: for IC50: read-out: IC50 HT29
Experimental: as §1

[4] = test system: HepG2; test: CellTiterGlo viability assay, HepG2; type: cell-based; details: for IC50: read-out: IC50 HepG2
Experimental: as §1

[5] = test system: human cervix carcinoma HeLa cells; test: Cell proliferation (Coulter count) assay, HeLa; type: cell-based; details: 120 h, cell count on day 5, read-out: absolute IC50, HeLa
Method in brief: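 Cells grown in DMEM with 10% FBS. HeLa seeded at 10 000 cells/well, compound added after 24 h, counted day 5; L1210 and CEM seeded at 60 000 cells/well with compound, counted after 48 h and 72 h respectively. IC50 is concentration halving proliferation by Coulter count.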

[6] = test system: CCRFCEM; test: CellTiterGlo viability assay, CCRFCEM; type: cell-based; details: for IC50: read-out: IC50 CCRFCEM
Method in brief: as §2

[7] = test system: THP-1; test: CellTiterGlo viability assay, THP-1; type: cell-based; details: Homo sapiens, read-out: IC50 THP-1
Experimental: as §1

[8] = test system: HL-60; test: CellTiterGlo viability assay, HL-60; type: cell-based; details: for IC50: read-out: IC50 HL-60
Method in brief: as §2

[9] = test system: BxPC-3; test: CellTiterGlo viability assay, BxPC-3; type: cell-based; details: Homo sapiens, read-out: IC50 BxPC-3
Experimental: as §1

[10] = test system: RPMI-8226; test: CellTiterGlo viability assay, RPMI-8226; type: cell-based, Human; details: for IC50: read-out: IC50 RPMI-8226
Method in brief: as §2

[11] = test system: KG1a leukaemic stem cell compartment (Lin−/CD34+/CD38−/CD123+); test: Leukaemic stem cell compartment in KG1a; type: cell-based; details: for Change relative to control (%): % LSC compartment versus the series' control; for KG-1a (CD34+/CD38−/CD123+) % compartment: LSC as percentage of viable cells left, 72 hrs
Experimental: A further comparative analysis of the toxicity of compounds in the KG1a cell line over an extended dose range was carried out, and the relative effect assessed of the compounds on the leukaemic stem cell compartment within the KG1a cell line, across the entire dose range. Thus, experimental tests were performed on certain compounds of the present invention to assess their ability to target cancer stem cells in a leukaemic cell line. The acute myeloid leukaemia (AML) cell line, KG1a, was employed to assess the relative effect of compounds on the stem cell compartment. The KG1a cell line was selected because it manifests a minor stem cell-like compartment with a distinct immunophenotype (Lin^−/CD34^+/CD38^−/CD123^+).
Cells of the KG1a cell line were maintained in RPMI medium (Invitrogen, Paisley, UK) supplemented with 100 units/ml penicillin, 100 μg/ml streptomycin and 20% foetal calf serum. Cells were subsequently aliquoted (10^5 cells/100 μl) into 96-well plates and were incubated at 37° C. in a humidified 5% carbon dioxide atmosphere for 72 hrs in the presence of nucleoside analogues and their respective nucleotide analogues (known as ProTides) at concentrations that were experimentally determined for each series of compounds. In addition, control cultures were carried out to which no drug was added. Cells were subsequently harvested by centrifugation and were analyzed by flow cytometry using the Annexin V assay.
KG1a cells were cultured for 72 hrs in the presence of a wide range of concentrations of each compound assayed. Cells were then harvested and labelled with a cocktail of anti-lineage antibodies (PE-cy7), anti-CD34 (FITC), anti-CD38 (PE) and anti-CD123 (PERCP cy5). The sub-population expressing a leukaemic stem cell (LSC) phenotype were subsequently identified and were expressed as a percentage of all viable cells left in the culture. The percentages of stem cells remaining were then plotted on a dose-response graph and the effects of the compounds were compared with 8-chloroadenosine.
The data obtained in these experiments were evaluated using one way ANOVA. All data was confirmed as Gaussian or a Gaussian approximation using the omnibus K2 test. LD50 values were calculated from the non-linear regression and line of best-fit analysis of the sigmoidal dose-response curves. All statistical analyses were performed using Graphpad Prism 6.0 software (Graphpad Software Inc., San Diego, Calif.).

[12] = Homo sapiens, MOLT-4, CellTiterGlo, 72 hrs
[13] = Homo sapiens, HEL 92.1.7, CellTiterGlo, 72 hrs
[14] = Homo sapiens, HT-29, CellTiterGlo, 72 hrs
[15] = Homo sapiens, HepG2, CellTiterGlo, 72 hrs
[16] = Homo sapiens, CCRF-CEM, CellTiterGlo, 72 hrs
[17] = Homo sapiens, HL-60, CellTiterGlo, 72 hrs
[18] = Homo sapiens, RPMI-8226, CellTiterGlo, 72 hrs

Nc1ncnc2c1nc(Cl)n2[C@@H]1O[C@H](COP(=O)(NCC(=O)OC2CCCCC2)Oc2ccccc2)[C@@H](O)[C@H]1O (mixture of isomers) [Compound A, Cyclohexyl 2-(((((2R,3S,4R,5R)-5-(6-amino-8-chloro-9H-purin-9-yl)-3,4-dihydroxy-tetrahydrofuran-2-yl)methoxy)(phenoxy)phosphoryl)amino)acetate]
IC50 ([1]; Homo sapiens, MOLT-4, 72 h): 15 to 100 µM | IC50 ([2]; Homo sapiens, HEL 92.1.7, 72 h): 5 to 15 µM | IC50 ([3]; Homo sapiens, HT-29, 72 h): 15 to 100 µM | IC50 ([4]; Homo sapiens, HepG2, 72 h): 5 to 15 µM | IC50 [5]: 15 to 100 µM | IC50 ([6]; Homo sapiens, CCRF-CEM, 72 h): 5 to 15 µM | IC50 ([7]; THP-1, 72 h): 15 to 100 µM | IC50 ([8]; Homo sapiens, HL-60, 72 h): 5 to 15 µM | IC50 ([9]; BXPC-3, 72 h): 15 to 100 µM | IC50 ([10]; Homo sapiens, RPMI-8226, 72 h): 5 to 15 µM

C[C@H](NP(=O)(OC[C@H]1O[C@@H](n2c(Cl)nc3c(N)ncnc32)C(O)C1O)Oc1cccc2ccccc12)C(=O)OCc1ccccc1 (stereo partly drawn) [Compound D, (2S)-Benzyl 2-(((((2R,3S,4R,5R)-5-(6-amino-8-chloro-9H-purin-9-yl)-3,4-dihydroxy-tetrahydrofuran-2-yl)methoxynaphthalene-1-yloxy)phosphoryl)amino)propanoate]
IC50 ([1]; Homo sapiens, MOLT-4, 72 h): 0.1 to 5 µM | IC50 ([2]; Homo sapiens, HEL 92.1.7, 72 h): 0.1 to 5 µM | IC50 ([3]; Homo sapiens, HT-29, 72 h): 0.1 to 5 µM | IC50 ([4]; Homo sapiens, HepG2, 72 h): 0.1 to 5 µM | IC50 [5]: 0.1 to 5 µM | IC50 ([6]; Homo sapiens, CCRF-CEM, 72 h): 0.1 to 5 µM | IC50 ([7]; THP-1, 72 h): 0.1 to 5 µM | IC50 ([8]; Homo sapiens, HL-60, 72 h): 5 to 15 µM | Change relative to control (%) [11]: −0.8% | KG-1a (CD34+/CD38−/CD123+) % compartment [11]: 2.5% | IC50 ([9]; BXPC-3, 72 h): 5 to 15 µM | IC50 ([10]; Homo sapiens, RPMI-8226, 72 h): 0.1 to 5 µM

Nc1ncnc2c1nc(Cl)n2[C@@H]1O[C@H](CO)[C@@H](O)[C@H]1O [8-chloroadenosine, 8-Chloroadenosine, reference compound]
Top in. % MOLT-4 [1]: 76.0% | IC50 [1, 12]: 0.1 to 5 µM | EC50 ([1]; Homo sapiens, MOLT-4, read-out: Ab EC50 (μM) MOLT-4): 3.27 µM | Top in. % HEL92.1.7 [2]: 96.4% | IC50 [2, 13]: 0.1 to 5 µM | EC50 ([2]; Homo sapiens, HEL 92.1.7, read-out: Ab EC50 (μM) HEL92.1.7): 2.2 µM | Top in. % HT29 [3]: 80.2% | IC50 [3, 14]: 0.1 to 5 µM | EC50 ([3]; Homo sapiens, HT-29, read-out: Ab EC50 (μM) HT29): 1.35 µM | Top in. % HepG2 [4]: 78.5% | IC50 [4, 15]: 0.1 to 5 µM | EC50 ([4]; Homo sapiens, HepG2, read-out: Ab EC50 (μM) HepG2): 1.13 µM | IC50 [5]: 0.1 to 5 µM | Top in. % CCRF-CEM [6]: 82.3% | IC50 [6, 16]: 0.1 to 5 µM | EC50 ([6]; Homo sapiens, CCRF-CEM, read-out: Ab EC50 (μM) CCRF-CEM): 2.27 µM | IC50 ([7]; THP-1, CellTiterGlo, 72 hrs): 0.1 to 5 µM | Top in. % HL-60 [8]: 97.1% | IC50 [8, 17]: 0.1 to 5 µM | EC50 ([8]; Homo sapiens, HL-60, read-out: Ab EC50 (μM) HL-60): 10.2 µM | Change relative to control (%) [11]: +0.4% | KG-1a (CD34+/CD38−/CD123+) % compartment [11]: 3.7% | IC50 ([9]; BXPC-3, CellTiterGlo, 72 hrs): 5 to 15 µM | Top in. % RPMI-8226 [10]: 96.2% | IC50 [10, 18]: 0.1 to 5 µM | EC50 ([10]; Homo sapiens, RPMI-8226, read-out: Ab EC50 (μM) RPMI-8226): 1.34 µM

Nc1ncnc2c1nc(Cl)n2[C@@H]1O[C@H](COP(=O)(NCC(=O)OCc2ccccc2)NCC(=O)OCc2ccccc2)C(O)C1O (some centres unmarked) [Compound AC, 8-Chloroadenosine 5′-O-bis(benzyloxy-glycin-N-yl) phosphate]
IC50 [1, 12]: 0.1 to 5 µM | IC50 [2, 13]: 0.1 to 5 µM | IC50 [3, 14]: 0.1 to 5 µM | IC50 [4, 15]: 0.1 to 5 µM | IC50 [5]: 0.1 to 5 µM | IC50 [6, 16]: 0.1 to 5 µM | IC50 ([7]; THP-1, CellTiterGlo, 72 hrs): 0.1 to 5 µM | IC50 [8, 17]: 0.1 to 5 µM | targeting of leukaemic/cancer stem cells in words ([11]; KG1a, compared to 8-chloroadenosine (FIG. 2, FIG. 8)): no evidence of a capacity to target cancer stem cells | IC50 ([9]; BXPC-3, CellTiterGlo, 72 hrs): 5 to 15 µM | IC50 [10, 18]: 0.1 to 5 µM
